# Experiments:
# MRGPRX4-83S [1] = target: T1, MRGPRX4-83S (Homo sapiens, UniProt Q96LA9, L83S); test: β-arrestin assay (CHO β-arrestin human MRGPRX4-83S); format: cell-based; set-up: host or cells: CHO β-arrestin cells
# Procedure, shortened: (§1)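 Calcium mobilization measured in recombinant astrocytes expressing MRGPRX4-83L and in LN229 glioblastoma cells natively expressing MRGPRX4-83S. β-Arrestin recruitment read by β-galactosidase complementation in recombinant CHO cells expressing human MRGPRX4.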
# MRGPRX4-83S [2] = target: T1, MRGPRX4-83S; test: Calcium assay (human glioblastoma LN229 cells expressing the MRGPRX4-83S); format: cell-based; set-up: LN229 glioblastoma cells natively expressing the MRGPRX4-83S; endogenous in cells; host or cells: LN229 human glioblastoma cells; settings: for Emax: LN-229
# Procedure, shortened: as §1
# human MRGPRX4-83L [3] = target: T2, human MRGPRX4-83L (Homo sapiens, UniProt Q96LA9); test: β-arrestin assay (CHO β-arrestin ARMS1-ProLink 2 human MRGPRX4 83L); format: cell-based
# T2 construct: host or cells: CHO β-arrestin cells
# Procedure, shortened: as §1
# human MRGPRX4-83L [4] = target: T2, human MRGPRX4-83L; test: Calcium assay (human MRGPRX4 83L), recombinant astrocytes; format: cell-based
# Procedure, shortened: as §1
# [5] = Table 3, efficacy based on 100 nM B-16 (set as 100%), read-out: Emax
# [6] = Table 3, β-arrestin recruitment, CHO cells, MRGPRX4-83S, read-out: EC50 ± SEM
# [7] = Table 3, efficacy based on 30 μM H-1 (set as 100%), read-out: Emax
# [8] = Table 3, calcium mobilization, LN229 cells, MRGPRX4-83S, read-out: EC50 ± SEM
# [9] = Table 4, efficacy based on maximal effect of 100 nM B-16 (set as 100%), read-out: Emax
# [10] = Table 4, β-arrestin recruitment, CHO cells, MRGPRX4-83L, read-out: EC50 ± SEM
# [11] = Table 4, calcium mobilization, MRGPRX4-83L, read-out: EC50 ± SEM
# [12] = Table 4, efficacy based on maximal effect of 1 μM B-16 (set as 100%), read-out: Emax
# [13] = Table 2, efficacy based on 100 nM B-16 (set as 100%), read-out: Emax
# [14] = Table 2, β-arrestin recruitment, CHO cells, MRGPRX4-83S, read-out: EC50 ± SEM
# [15] = Table 2, efficacy based on 30 μM H-1 (set as 100%), read-out: Emax
# [16] = Table 2, calcium mobilization, LN229 cells, MRGPRX4-83S, read-out: EC50 ± SEM
# [17] = Table 1, efficacy based on maximal effect of 100 nM B-16 (set as 100%), read-out: Emax
# [18] = Table 1, β-arrestin recruitment, CHO cells, MRGPRX4-83L, means of 3-4 experiments, read-out: EC50 ± SEM
# [19] = Table 1, calcium mobilization, MRGPRX4-83L, read-out: EC50 ± SEM
# [20] = Table 1, efficacy based on maximal effect of 1 μM B-16 (set as 100%), read-out: Emax
# T2 sequence (Q96LA9 whole entry): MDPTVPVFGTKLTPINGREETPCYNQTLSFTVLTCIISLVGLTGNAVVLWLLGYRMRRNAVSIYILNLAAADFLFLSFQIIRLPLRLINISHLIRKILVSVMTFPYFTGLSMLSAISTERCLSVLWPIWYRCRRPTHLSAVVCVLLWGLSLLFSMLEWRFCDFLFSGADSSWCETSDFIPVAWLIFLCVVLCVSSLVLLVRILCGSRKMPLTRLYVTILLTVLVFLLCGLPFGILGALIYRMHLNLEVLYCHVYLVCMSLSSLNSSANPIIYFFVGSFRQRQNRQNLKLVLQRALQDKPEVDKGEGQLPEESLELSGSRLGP
# T1 sequence (Q96LA9 whole entry L83S): as the sequence (Q96LA9 whole entry) above, with L83S counted along it
SMILES,melting point,Emax (MRGPRX4-83S [1]; [5]),EC50 (MRGPRX4-83S [1]; [6]),Emax (MRGPRX4-83S [2]; [7]),EC50 (MRGPRX4-83S [2]; [8]),Emax (MRGPRX4-83S [1]; [13]),EC50 (MRGPRX4-83S [1]; [14]),Emax (MRGPRX4-83S [2]; [15]),EC50 (MRGPRX4-83S [2]; [16]),Emax (human MRGPRX4-83L [3]; [17]),EC50 (human MRGPRX4-83L [3]; [18]),EC50 (human MRGPRX4-83L [4]; [19]),Emax (human MRGPRX4-83L [4]; [20]),also measured
"C#CCn1c(=O)c2c(nc(CCc3ccccc3Br)n2CCCl)n(CCCCP(=O)(O)O)c1=O [B-50, (4-(8-(2-Bromophenethyl)-7-(2-chloroethyl)-2,6-dioxo-1-(prop-2-yn-1-yl)-1,2,6,7-tetrahydro-3H-purin-3-yl)butyl)phosphonic acid]",197 to 199 °C,,,,,,,,,,,,,EC50 (MRGPRX4-83S [1]): 0.301 ± 0.021 nM; Emax (MRGPRX4-83S [1]): 84%; EC50 (MRGPRX4-83S [2]): 0.095 ± 0.0427 nM; Emax (MRGPRX4-83S [2]): 111%; EC50 (human MRGPRX4-83L [3]): 24.3 ± 3.2 nM; Emax (human MRGPRX4-83L [3]): 91%; EC50 (human MRGPRX4-83L [4]): 2.28 ± 0.75 nM; Emax (human MRGPRX4-83L [4]): 118%
"C#CCn1c(=O)c2c(nc(CCc3ccccc3Br)n2CCN)n(CCCCP(=O)(O)O)c1=O [B-51, (4-(7-(2-Aminoethyl)-8-(2-bromophenethyl)-2,6-dioxo-1-(prop-2-yn-1-yl)-1,2,6,7-tetrahydro-3H-purin-3-yl)butyl)phosphonic acid]",159 to 161 °C,99%,0.932 ± 0.177 nM,107%,1.48 ± 0.4 nM,,,,,,,,,Emax (human MRGPRX4-83L [3]; [9]): 93%; EC50 (human MRGPRX4-83L [3]; [10]): 566 ± 106 nM; EC50 (human MRGPRX4-83L [4]; [11]): 79.8 ± 36.7 nM; Emax (human MRGPRX4-83L [4]; [12]): 102%
"C#CCn1c(=O)c2[nH]c(CCc3cccc(C)c3)nc2n(CCCCP(=O)(O)O)c1=O [B-5, (4-(8-(3-Methylphenethyl)-2,6-dioxo-1-(prop-2-yn-1-yl)-1,2,6,7-tetrahydro-3H-purin-3-yl)butyl)phosphonic acid]",244 to 246 °C,,,,,103%,34.3 ± 7.6 nM,96%,18.1 ± 1.5 nM,99%,15200 ± 520 nM,492 ± 38 nM,91%,
"C#CCn1c(=O)c2[nH]c(CCc3cccc(OC)c3)nc2n(CCCCP(=O)(O)OCC)c1=O [D-3, Ethyl hydrogen (4-(8-(3-methoxyphenethyl)-2,6-dioxo-1-(prop-2-yn-1-yl)-1,2,6,7-tetrahydro-3H-purin-3-yl)butyl)phosphonate]",118 to 120 °C,,,,,110%,5.8 ± 1.41 nM,111%,2.65 ± 0.72 nM,112%,407 ± 710 nM,36.3 ± 1.8 nM,114%,
"C#CCn1c(=O)c2[nH]c(CCc3cccc(C(F)(F)F)c3)nc2n(CCCCP(=O)(O)O)c1=O [B-6, (4-(2,6-Dioxo-1-(prop-2-yn-1-yl)-8-(3-(trifluoromethyl)phenethyl)-1,2,6,7-tetrahydro-3H-purin-3-yl)butyl)phosphonic acid]",223 to 226 °C,,,,,100%,20.5 ± 2.4 nM,150%,38.2 ± 10.9 nM,114%,11900 ± 1800 nM,267 ± 66 nM,99%,
"C#CCn1c(=O)c2[nH]c(CCc3ccccc3OC)nc2n(CCCCP(=O)(O)O)c1=O [B-7, (4-(8-(2-Methoxyphenethyl)-2,6-dioxo-1-(prop-2-yn-1-yl)-1,2,6,7-tetrahydro-3H-purin-3-yl)butyl)phosphonic acid]",169 to 172 °C,,,,,101%,8.94 ± 1.38 nM,132%,10.3 ± 1.3 nM,103%,3120 ± 1200 nM,397 ± 32 nM,108%,
"C#CCn1c(=O)c2[nH]c(CCc3ccc(OC)cc3OC)nc2n(CCCCP(=O)(O)O)c1=O [B-10, (4-(8-(2,4-Dimethoxyphenethyl)-2,6-dioxo-1-(prop-2-yn-1-yl)-1,2,6,7-tetrahydro-3H-purin-3-yl)butyl)phosphonic acid]",255 to 257 °C,,,,,87%,71.4 ± 19.3 nM,82%,30.6 ± 3.1 nM,100%,14500 ± 2400 nM,425 ± 187 nM,113%,
"C#CCn1c(=O)c2c(nc(CCc3ccccc3F)n2C)n(CCCCP(=O)(O)O)c1=O [B-28, (4-(8-(2-Fluorophenethyl)-7-methyl-2,6-dioxo-1-(prop-2-yn-1-yl)-1,2,6,7-tetrahydro-3H-purin-3-yl)butyl)phosphonic acid]",217 to 219 °C,78%,1.48 ± 0.18 nM,92%,0.284 ± 0.074 nM,,,,,,,,,Emax (human MRGPRX4-83L [3]; [9]): 118%; EC50 (human MRGPRX4-83L [3]; [10]): 113 ± 39 nM; EC50 (human MRGPRX4-83L [4]; [11]): 39.7 ± 9.6 nM; Emax (human MRGPRX4-83L [4]; [12]): 62%
"C#CCn1c(=O)c2[nH]c(CCc3ccccc3Br)nc2n(CCCCCC(=O)O)c1=O [G-3, 6-(8-(2-Bromophenethyl)-2,6-dioxo-1-(prop-2-yn-1-yl)-1,2,6,7-tetrahydro-3H-purin-3-yl) hexanoic acid]",192 to 194 °C,,> 100000 nM,,> 10000 nM,,,,,,,,,
"C#CCn1c(=O)c2c(nc(CCc3ccc(C(F)(F)F)cc3)n2CC2CCCC2)n(CCCCP(=O)(O)O)c1=O [B-40, (4-(7-(cyclopentylmethyl)-2,6-dioxo-1-(prop-2-yn-1-yl)-8-(4-(trifluoromethyl)phenethyl)-1,2,6,7-tetrahydro-3H-purin-3-yl)butyl)phosphonic acid]",101 to 102 °C,77%,18.3 ± 6.1 nM,8%,23.7 ± 0.7 nM,,,,,,,,,IC50 (MRGPRX4-83S [2]): 13 ± 1.4 nM
"C#CCn1c(=O)c2c(nc(CCc3ccccc3C)n2C(C)C)n(CCCCP(=O)(O)O)c1=O [B-48, (4-(7-Isopropyl-8-(2-methylphenethyl)-2,6-dioxo-1-(prop-2-yn-1-yl)-1,2,6,7-tetrahydro-3H-purin-3-yl)butyl)phosphonic acid]",88 to 90 °C,102%,0.0705 ± 0.0198 nM,154%,0.984 ± 0.054 nM,,,,,,,,,
"C#CCn1c(=O)c2c(nc(CCc3ccc(OC)cc3)n2CC2CCCC2)n(CCCCP(=O)(O)O)c1=O [B-41, (4-(7-(cyclopentylmethyl)-8-(4-methoxyphenethyl)-2,6-dioxo-1-(prop-2-yn-1-yl)-1,2,6,7-tetra-hydro-3H-purin-3-yl)butyl)phosphonic acid]",111 to 113 °C,96%,3.67 ± 1.21 nM,57%,51.4 ± 8.5 nM,,,,,,,,,
"C#CCn1c(=O)c2c(nc(CCc3ccccc3C)n2CC)n(CCCCP(=O)(O)O)c1=O [B-32, (4-(7-Ethyl-8-(2-methylphenethyl)-2,6-dioxo-1-(prop-2-yn-1-yl)-1,2,6,7-tetrahydro-3H-purin-3-yl)butyl)phosphonic acid]",152 to 154 °C,97%,0.0424 ± 0.015 nM,111%,0.441 ± 0.157 nM,,,,,,,,,
"C#CCn1c(=O)c2c(nc(CCc3ccc(-c4ccccc4)cc3)n2CC2CCCC2)n(CCCCP(=O)(O)O)c1=O [B-44, (4-(8-(2-([1,1′-biphenyl]-4-yl)ethyl)-7-(cyclopentylmethyl)-2,6-dioxo-1-(prop-2-yn-1-yl)-1,2,6,7-tetrahydro-3H-purin-3-yl)butyl)phosphonic acid]",156 to 158 °C,43%,2.12 ± 0.85 nM,,> 10000 nM,,,,,,,,,IC50 (MRGPRX4-83S [2]): 0.0873 ± 0.012 nM
